Data published in PMC7765489, “Structural Characterization of Glycerol Kinase from the Thermophilic Fungus Chaetomium thermophilum” (International Journal of Molecular Sciences, 2020).
Each block holds one molecule with its values, some of them ahead of it.

Assays:
[1] = target: T1, CtGK (Thermochaetoides thermophila, UniProt G0SAG9); assay: thermal shift assay, Sypro Orange; format: binding; conditions: 50 mM Tris, 200 mM NaCl, pH 8.0
T1 construct: gene CTHT_0042250; residues 67-590 (models start at residue 65), N-terminal His-tag cut by TEV, codon-optimized gene, E. coli BL21(DE3), dimer
T1 sequence (G0SAG9 67-590): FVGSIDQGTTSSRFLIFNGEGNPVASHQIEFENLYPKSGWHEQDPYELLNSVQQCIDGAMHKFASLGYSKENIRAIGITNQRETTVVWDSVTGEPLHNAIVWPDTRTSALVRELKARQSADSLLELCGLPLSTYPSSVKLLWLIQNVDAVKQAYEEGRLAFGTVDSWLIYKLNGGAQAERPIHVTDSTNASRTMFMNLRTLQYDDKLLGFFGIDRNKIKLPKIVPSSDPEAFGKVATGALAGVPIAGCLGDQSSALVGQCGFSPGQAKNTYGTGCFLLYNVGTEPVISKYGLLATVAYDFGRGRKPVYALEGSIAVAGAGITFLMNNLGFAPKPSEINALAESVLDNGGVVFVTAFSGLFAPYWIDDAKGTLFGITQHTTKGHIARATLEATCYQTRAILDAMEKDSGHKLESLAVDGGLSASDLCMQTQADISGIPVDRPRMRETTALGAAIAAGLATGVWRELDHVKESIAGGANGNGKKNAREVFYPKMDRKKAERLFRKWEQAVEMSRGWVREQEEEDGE

[2] = target: T1, CtGK; assay: X-ray crystal structure (glycerol soak); format: binding; conditions: 20-25% glycerol as cryoprotectant; 0.2 M CaCl2, PEG 3350; active site in N-terminal domain
[3] = target: the molecule itself; assay: SEC-MALS; XBridge BEH200 7.8 x 300 column, 50 mM Tris pH 7.8, 200 mM NaCl, 1 mL/min
[4] = substrate: Nc1ncnc2c1ncn2[C@@H]1O[C@H](COP(=O)(O)OP(=O)(O)OP(=O)(O)O)[C@@H](O)[C@H]1O; assay: purified protein; format: biochemical, Thermochaetoides thermophila; conditions: 1 mM glycerol, 5 mM MgCl2, 50 mM KCl, 250 mM sucrose, 20 mM Tris-HCl pH 7.4, 37 °C, substrate inhibition at high ATP

Molecule: O=P(O)(O)OC[C@H]1OC(O)(COP(=O)(O)O)[C@@H](O)[C@@H]1O (stereo partly shown) [fructose-1,6-bisphosphate]
- Tm ([1]; 0.5 mM FBP, with GOL and ATP, site unidentified): FBP prevents the protein destabilization by GOL and ATP (Figure S1B)

- Tm ([1]; 0.5 mM ATP, no glycerol): 54.5 ± 0.00 °C
Molecule: Nc1ncnc2c1ncn2[C@@H]1O[C@H](COP(=O)(O)OP(=O)(O)OP(=O)(O)O)[C@@H](O)[C@H]1O [ATP]

- Tm ([1]; 0.5 mM ADP, no glycerol): 55.0 ± 1.11 °C
Molecule: Nc1ncnc2c1ncn2[C@@H]1O[C@H](COP(=O)(O)OP(=O)(O)O)[C@@H](O)[C@H]1O [ADP]

- Tm ([1]; 5% glycerol, no nucleotide): 53.88 ± 0.48 °C
Molecule: OCC(O)CO [glycerol]
- X-ray crystal structure (glycerol soak) [2]: we were able to solve the enzyme-substrate complex with a clear electron density

B1: glycerol kinase from Chaetomium thermophilum (enzyme, UniProt G0SAG9 67-590, looked up)
chain: T1 sequence (G0SAG9 67-590)
notes: glycerol kinase, Chaetomium thermophilum, UniProt G0SAG9, residues 67-590; codon-optimised synthetic gene in pET24d with N-terminal His-Tag and TEV site; The crystal models begin at residue 65 (67 for chain B) although the construct is stated as 67-590; also called CtGK; GK; source: E. coli BL21 (DE3), purified (Ni-Sepharose, TEV cleavage, second Ni-Sepharose, gel filtration on Superdex 75); not …
- stoichiometry N [3]: 2
- Km [4]: 52 ± 9 µM
